Where a name gives a salt, the structure may show the parent alone.

For nine compounds, IC50 and melting point results are on record in patent US7750016B2, “Hydroxyalkyl substituted pyrido-7-pyrimidin-7-ones” (Roche Palo Alto LLC, priority 2003, dated 2010).

The subject of one series is LPS-induced IL-1β production in undiluted human whole blood. As to the kind of experiment: human whole blood (HWB) in vitro assay, IL-1β ELISA. The format is cell-based. The settings on record: 0.5 μg/mL LPS, 18 hours, 30 min pre-incubation. A general note: In an ELISA, binding on a coated surface is turned into a signal by an enzyme label.
Method: LPS (lipopolysaccharide) treatment of human whole blood induces IL-1β (Interleukin-1β) production that can be measured by an IL-1β specific ELISA. Human whole blood was pre-incubated with the indicated concentrations of a compound of the present invention in 0.5% DMSO (final concentration) for 30 min at 37° C. Samples were stimulated with 0.5 μg/mL of lipopolysaccharide (LPS, from Sigma) (final concentration) for 18 hours to induce the synthesis and secretion of IL-1β which was measured using an IL-1β ELISA.
A stock solution of 6 mM in DMSO (from Sigma) was prepared by dissolving the compound in DMSO in 449 μL of DMSO. From the 6 mM stock solution, six subsequent half-log serial dilutions in DMSO were performed to give the following concentrations: 1.9 mM, 600, 190, 60, 19, and 6 μM. […] 216 μL DMSO was placed in each of tubes 2-7.
Reconstitution of LPS: in the 10 mg. vial of LPS, 10 mL 1× Phosphate-Buffered Saline (i.e., 1×PBS, from Gibco-BRL) was added, mixed well and transferred to a 50 mL tube. Another 10 mL was added to the LPS vial, followed by rinsing, and this rinse was added to the 50 mL tube and mixed will. The solution was filtered and sterilized, and aliquotted in desired amounts (100 μL aliquot was sufficient for 4 plates). This yielded a 0.5 mg/mL stock which was diluted 1/100 for use in protocol. Just prior to use, the LPS stock was diluted 1/100 (100 μL in 10 mL of RPMI) […]
One may read the IC50 as the concentration needed to halve the response being measured. The compound `C[C@@H](O)Cn1c(=O)c(Oc2ccc(F)cc2F)cc2cnc(NC3CCOCC3)nc21` [Compound 20, 6-(2,4-Difluoro-phenoxy)-8-((R)-2-hydroxy-propyl)-2-(tetrahydro-pyran-4-ylamino)-8H-pyrido[2,3-d]pyrimidin-7-one] came in with a concentration for half-maximal inhibition (IC50) of 1 nM.

System in a further series: not given
Assay: not given
Details: not given
The term melting point denotes the temperature, or range, at which the solid turns liquid. Compound `C[C@H](O)Cn1c(=O)c(Oc2ccc(F)cc2F)cc2cnc(N[C@@H](C)CO)nc21` (as salt: hydrochloride) [Compound 16, 6-(2,4-Difluoro-phenoxy)-2-((S)-2-hydroxy-1-methyl-ethylamino)-8-((S)-2-hydroxy-propyl)-8H-pyrido[2,3-d]pyrimidin-7-one] came in with a melting point of 175.1 to 179.1 °C. Still for that read-out and setting: with `C[C@H](O)Cn1c(=O)c(Oc2ccc(F)cc2F)cc2cnc(N[C@H](C)CO)nc21` (as salt: hydrochloride) [Compound 17, 6-(2,4-Difluoro-phenoxy)-2-((R)-2-hydroxy-1-methyl-ethylamino)-8-((S)-2-hydroxy-propyl)-8H-pyrido[2,3-d]pyrimidin-7-one] the figure was 174.9 to 178.1 °C. The same measure, in the same setting: with `C[C@@H](O)Cn1c(=O)c(Oc2ccc(F)cc2F)cc2cnc(NC(C)(C)CO)nc21` (as salt: hydrochloride) [Compound 31, 6-(2,4-Difluoro-phenoxy)-2-(2-hydroxy-1,1-dimethyl-ethylamino)-8-((R)-2-hydroxy-propyl)-8H-pyrido[2,3-d]pyrimidin-7-one] the figure was 182 to 183.9 °C; with `C[C@H](O)Cn1c(=O)c(Oc2ccc(F)cc2F)cc2cnc(NC(C)(C)CO)nc21` (as salt: hydrochloride) [Compound 36, 6-(2,4-Difluoro-phenoxy)-2-(2-hydroxy-1,1-dimethyl-ethylamino)-8-((S)-2-hydroxy-propyl)-8H-pyrido[2,3-d]pyrimidin-7-one], 187.4 to 189.9 °C; with `C[C@@H](O)Cn1c(=O)c(Oc2ccc(F)cc2F)cc2cnc(N[C@@H](C)CO)nc21` (as salt: hydrochloride) [Compound 41, 6-(2,4-Difluoro-phenoxy)-2-((S)-2-hydroxy-1-methyl-ethylamino)-8-((R)-2-hydroxy-propyl)-8H-pyrido[2,3-d]pyrimidin-7-one], 186 to 189.1 °C.

The compound `C[C@H](CO)Nc1ncc2cc(Oc3ccc(F)cc3F)c(=O)n(C[C@@H](C)O)c2n1` (as salt: hydrochloride) [Compound 42, 6-(2,4-Difluoro-phenoxy)-2-((R)-2-hydroxy-1-methyl-ethylamino)-8-((R)-2-hydroxy-propyl)-8H-pyrido[2,3-d]pyrimidin-7-one] had a melting point of 181.5 to 184.4 °C.

As for `CC(=O)Cn1c(=O)c(Oc2ccc(F)cc2F)cc2cnc(N[C@@H](C)CO)nc21` (as salt: hydrochloride) [Compound 45, 6-(2,4-Difluoro-phenoxy)-2-((S)-2-hydroxy-1-methyl-ethylamino)-8-(2-oxo-propyl)-8H-pyrido[2,3-d]pyrimidin-7-one], the melting point lay in the range of 207.9 to 214.6 °C.

`CC(=O)Cn1c(=O)c(Oc2ccc(F)cc2F)cc2cnc(N[C@H](C)CO)nc21` (as salt: hydrochloride) [Compound 46, 6-(2,4-Difluoro-phenoxy)-2-((R)-2-hydroxy-1-methyl-ethylamino)-8-(2-oxo-propyl)-8H-pyrido[2,3-d]pyrimidin-7-one]: the melting point is 207.8 to 216.4 °C.
